In general, Ki refers to the equilibrium dissociation constant of an inhibitor or competing ligand from its target. A high value points to weaker binding.

The structures appear in SMILES notation. Counter-ions that a name gives are not always drawn.

One experiment addresses T1, MMP-1 (Homo sapiens, UniProt P03956).
T1 construct: The active MMP-1 was obtained by treatment of proMMP-1 with trypsin; endogenous in cells; host or cells: human rheumatoid synovial fibroblasts stimulated with macrophage-conditioned medium
T1 sequence (P03956 100-469): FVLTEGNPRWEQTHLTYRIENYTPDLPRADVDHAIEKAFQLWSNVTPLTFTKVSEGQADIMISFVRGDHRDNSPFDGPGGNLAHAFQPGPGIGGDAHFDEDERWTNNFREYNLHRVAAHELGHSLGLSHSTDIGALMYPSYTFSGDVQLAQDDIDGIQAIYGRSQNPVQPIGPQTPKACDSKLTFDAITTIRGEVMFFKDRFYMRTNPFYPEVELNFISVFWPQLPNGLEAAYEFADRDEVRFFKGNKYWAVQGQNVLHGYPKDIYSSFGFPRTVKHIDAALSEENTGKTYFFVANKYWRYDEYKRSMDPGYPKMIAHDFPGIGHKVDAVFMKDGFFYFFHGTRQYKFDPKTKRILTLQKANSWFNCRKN
Kind of experiment: Determination of inhibition constant (Ki) for MMP-1, fluorogenic substrate assay. Conditions: substrate Mca-Pro-Leu-Gly-Leu-Dpa-Ala-Arg-NH2, 37°C, pH 7.6, [S] = 1 µM, [MMP-1] = 0.8 nM. The experiment is classed as biochemical. The procedure: ProMMP-1 (EC 3.4.24.7; interstitial collagenase) was purified from culture medium of human rheumatoid synovial fibroblasts stimulated with macrophage-conditioned medium according to Okada, Y. et al., J. Biol. Chem. 261, 14245-14255 (1986). The active MMP-1 was obtained by treatment of proMMP-1 with trypsin (5 µg/mL) at 37°C for 30 minutes, followed by addition of soybean trypsin inhibitor (50 µg/mL).
The activated MMP-1 is assayed using a fluorogenic substrate, Mca-Pro-Leu-Gly-Leu-Dpa-Ala-Arg-NH2, Knight, C.G. et al., FEBS Lett. 296, 263-266 (1992), at 37°C in 2.0 mL of assay buffer containing 50 mM Tris, pH 7.6, 0.2 M sodium chloride, 50 mM calcium chloride, and 0.02% Brij-35. The increase in fluorescence due to cleavage of Gly-Leu peptide bond by MMP-3 was monitored with Perkin-Elmer LS50B Fluorimeter (λex 328 nm, λem 393 nm, excitation slit 2.5, emission slit 10). Substrate and inhibitor stock solutions were made in DMF. For determination of Ki values for MMP-1 inhibitors, a series of intermediate inhibitor solutions were prepared in DMF and 1 or 2 µL of the diluted inhibitor solution was mixed with 1 µL of 2 mM substrate solution in DMF in a quartz cuvette containing 2 mL of assay buffer. The enzyme (10 µL of 0.2 µM MMP-3 dilution in assay buffer) was added at the last to start the reaction. For routine measurement of a Ki value for a reversible, competitive inhibitor, the initial rates in the presence of at least four inhibitor concentrations (two concentrations above K; and two concentrations below Ki) were measured using [S] = 1 µM (<< Km) and [MMP-1] = 0.8 nM. Under these conditions, the measured Ki, app is close to true Ki.
The Ki for a competitive inhibitor is calculated using: v0/vi = (1 + [I]/Ki,app) and Ki = Ki,app/(1 + [S]/Km), where v0 is the initial rate in the absence of inhibitor, vi is the initial rate in the presence of inhibitor at the concentration of [I], [S] is the substrate concentration, and Km is the Michaelis constant. If slow binding is observed (i.e. if the approach to the binding equilibrium is slow), the final steady-state rate rather than the initial rate is taken as vi.

The next experiment concerns the target T2, MMP-12 (Homo sapiens, UniProt P39900).
T2 construct: made in house
The experiment can be described thus: Determination of inhibition constant (Ki) for MMP-12 (macrophage metalloelastase), fluorogenic substrate assay, cuvette or microtiter plate. The format is biochemical. To be noted: substrate Mca-Pro-Leu-Gly-Leu-Dpa-Ala-Arg-NH2, 25°C, pH 7.6, [MMP-12] = 2 nM. As to the method:
MMP-12 (EC 3.4.24.65) was cloned, expressed and purified according to Shapiro, S.D. et al., J Biol. Chem. 268, 23824-23829 (1993). […] Aliquots of MMP-12 were stored at -70C.
The potency of inhibitors of MMP-12 was measured using either quartz cuvettes or microtiter plates. The activity of MMP-12 was measured using a fluorogenic substrate, Mca-Pro-Leu-Gly-Leu-Dpa-Ala-Arg-NH2, Knight, C.G. et al., FEBS Lett. 296, 263-266 (1992), at 25°C in an assay buffer containing 50 mM Tris, pH 7.6, 0.2 M sodium chloride, 50 mM calcium chloride, and 0.02% Brij-35. The increase in fluorescence due to cleavage of Gly-Leu peptide bond by MMP-12 was monitored with a Perkin-Elmer LS50B Fluorimeter (λex 328 nm, λem 393 nm, excitation slit 2.5, emission slit 10) for the cuvette assay and with a Molecular Devices Fmax fluorescence plate reader (λex 320 nm, λem 405 nm) for the microtiter plate assay. Substrate and inhibitor stock solutions were made in N,N-dimethylformamide (DMF) and 0.1% HCl-DMF, respectively.
Ki values were determined using the cuvette method by preparing a series of intermediate inhibitors solutions in 0.1% HCl-DMF and mixing the inhibitor with substrate (final concentration 2 µM) in a quartz cuvette containing 2 ml of assay buffer. MMP-12 was added to start the reaction at a concentration of 2 nM and progress curves were generated. For routine measurement of a Ki value for a reversible competitive inhibitor, the initial rates in the presence of at least four inhibitor concentrations (two concentrations above and two concentrations below the Ki) were measured [S] = 2 µM (<<Km) and [MMP-12] = 2 nM. Under these conditions, the measured Ki,app is close to the true Ki.
Ki values were determined using the microtiter plate method in a manner similar to that described for the cuvette method with some modifications. Four different inhibitor concentrations (50 µl in assay buffer) of each compound were added to separate wells of a microtiter plate and substrate was added (100 µl) to get a final concentration of […]. MMP-12 was added to a final concentration of 2 nM (50 µl) to start the reaction. Cleavage of substrate was recorded every 30 seconds for 30 minutes and progress curves were generated.
The Ki for a competitive inhibitor was calculated using: Vo/Vi = (1+[I]/Ki,app) and Ki = Ki,app/(1+[S]/Km), where Vo is the initial rate in the absence of inhibitor, Vi is the initial rate in the presence of inhibitor at the concentration of [I], [S] is the substrate concentration, and Km is the Michaelis constant. If slow binding is observed (i.e. if the approach to the binding equilibium is slow), the final steady-state rate rather than the initial rate is taken as Vi.

T2 sequence (P39900 106-263 limits assumed): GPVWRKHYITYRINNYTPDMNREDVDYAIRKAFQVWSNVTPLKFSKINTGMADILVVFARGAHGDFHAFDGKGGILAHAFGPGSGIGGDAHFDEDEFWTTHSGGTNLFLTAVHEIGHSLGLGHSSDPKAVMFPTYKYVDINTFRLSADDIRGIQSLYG

For the molecule `CC(C)C(S)C(=O)N[C@@H](CCCCN)C(=O)N[C@@H](Cc1ccccc1)C(=O)O` (stereo in doubt) [Example 5, (S)-2-Mercapto-3-methylbutyroyl-(L)-lysyl-(L)-phenylalanine trifluoroacetic acid salt], the Ki was 3.91 µM at MMP-1 and 0.151 µM at MMP-12.
For `CCCC(S)C(=O)N[C@@H](CCc1ccccc1)C(=O)N[C@@H](Cc1ccccc1)C(=O)NC` (stereo partly drawn) [Example 6, (S)-2-Mercaptopentanoyl-(L)-homo-phenylalanyl-(L)-phenylalanine N-methyl amide], the Ki on MMP-1 is 0.36 µM; at MMP-12 it was 0.014 µM.
With `CCCC(S)C(=O)N[C@@H](CCc1ccccc1)C(=O)N[C@@H](Cc1ccccc1)C(=O)O` (some centres unmarked) [Example 1, 2-Mercapto-pentanoyl-(L)-homo-phenylalanyl-(L)-phenylalanine], the Ki on MMP-1 is 5.8 µM; at MMP-12, 0.013 µM.
Consider `CC(C)C[C@H](NC(=O)C(S)C(C)C)C(=O)N[C@@H](Cc1ccccc1)C(=O)O` (stereo in doubt) [Example 3, (S)-2-Mercapto-3-methylbutyroyl-(L)-leucyl-(L)-phenylalanine], for which the Ki amounted to 0.518 µM at MMP-1 and 0.014 µM at MMP-12.
Take `CNC(=O)[C@H](Cc1ccccc1)NC(=O)[C@H](CCc1ccccc1)NC(=O)[C@@H](S)C(C)C` [Example 7, (S)-2-Mercapto-3-methylbutyroyl-(L)-homo-phenylalanyl-(L)-phenylalanine N-methyl amide]: the inhibition constant Ki at MMP-1 came to 0.465 µM; at MMP-12, 0.0006 µM.
With `CC(C)[C@H](S)C(=O)N[C@@H](CCc1ccccc1)C(=O)N[C@@H](Cc1ccccc1)C(=O)O` [Example 2, (S)-2-Mercapto-3-methylbutyroyl-(L)-homo-phenylalanyl-(L)-phenylalanine], the Ki on MMP-1 is 5.11 µM; at MMP-12, 0.004 µM.
As for `CSCC[C@H](NC(=O)C(S)C(C)C)C(=O)N[C@@H](Cc1ccccc1)C(=O)O` (stereo in doubt) [Example 4, (S)-2-Mercapto-3-methylbutyroyl-(L)-methionyl-(L)-phenylalanine], the inhibition constant (Ki) at MMP-1 is 0.153 µM; on MMP-12, 0.014 µM.

These data come from patent EP1140984B1, “SELECTIVE INHIBITORS OF MMP-12” (Aventis Pharmaceuticals Inc., priority 1998, dated 2000).
